Test results as given in patent US20240150338A1, “COMPOUNDS AND USE THEREOF FOR TREATMENT OF NEURODEGENERATIVE, DEGENERATIVE AND METABOLIC DISORDERS” (University of Florida Research Foundation, Incorporated, priority 2021, published 2024).

test system: PK1 neuroblastoma cells exposed to TPrP; experiment: cells; format: cell-based; settings: Neuroblastoma cell, 96 h, read-out: TPrP EC50

Compared with `NS(=O)(=O)c1ccc(Nc2nc(-c3ccncc3)cs2)cc1` [SR-186, 4-((4-(pyridin-4-yl)thiazol-2-yl)amino)benzenesulfonamide], `CNS(=O)(=O)c1ccc(-c2csc(Nc3ccc(S(N)(=O)=O)cc3)n2)cc1` [SR-34771, N-methyl-4-(2-((4-sulfamoylphenyl)amino)thiazol-4-yl)benzenesulfonamide] is 2.8-fold lower in EC50: 70 nM for the first, 25 nM for the second.

Going from `NS(=O)(=O)c1ccc(Nc2nc(-c3ccc(S(=O)(=O)N4CCOCC4)cc3)c(CO)s2)cc1` [SR-34764, 4-((5-(Hydroxymethyl)-4-(4-(morpholinosulfonyl)phenyl)thiazol-2-yl)amino)benzenesulfonamide] to `NS(=O)(=O)c1ccc(Nc2nc(-c3ccc(S(=O)(=O)N4CCCCC4)cc3)c(CO)s2)cc1` [SR-34772, 4-((5-(Hydroxymethyl)-4-(4-(piperidin-1-ylsulfonyl)phenyl)thiazol-2-yl)amino)benzenesulfonamide], the EC50 rises from 60 nM to 400 nM (6.7-fold).

First: NS(=O)(=O)c1ccc(Nc2nc(-c3ccc(S(=O)(=O)N4CCOCC4)cc3)cs2)cc1 [SR-34765, 4-((4-(4-(Morpholinosulfonyl)phenyl)thiazol-2-yl)amino)benzenesulfonamide]
Second: CN(C)S(=O)(=O)c1ccc(-c2csc(Nc3ccc(S(N)(=O)=O)cc3)n2)cc1 [SR-34769, N,N-dimethyl-4-(2-((4-sulfamoylphenyl)amino)thiazol-4-yl)benzenesulfonamide]
The EC50 of the first is 2.3-fold higher: 70 nM for the first, 30 nM for the second.

Compared with `NS(=O)(=O)c1ccc(Nc2nc(-c3ccc(S(=O)(=O)Nc4ccccc4)cc3)cs2)cc1` [SR-34767, N-Phenyl-4-(2-((4-sulfamoylphenyl)amino)thiazol-4-yl)benzenesulfonamide], `CC(C)NS(=O)(=O)c1ccc(-c2csc(Nc3ccc(S(C)(=O)=O)cc3)n2)cc1` [SR-34967, N-isopropyl-4-(2-((4-(methylsulfonyl)phenyl)amino)thiazol-4-yl)benzenesulfonamide] is lower in EC50: greater than 500 nM for the first, 500 nM for the second.

Going from `CCN(CC)S(=O)(=O)c1ccc(-c2csc(Nc3ccc(S(N)(=O)=O)cc3)n2)cc1` [SR-34768, N,N-diethyl-4-(2-((4-sulfamoylphenyl)amino)thiazol-4-yl)benzenesulfonamide] to `CCN(CC)S(=O)(=O)c1ccc(-c2csc(Nc3ccc(S(C)(=O)=O)cc3)n2)cc1` [SR-34966, N,N-diethyl-4-(2-((4-(methylsulfonyl)phenyl)amino)thiazol-4-yl)benzenesulfonamide], the EC50 rises from 150 nM to greater than 500 nM.

Going from `CCN(CC)S(=O)(=O)c1ccc(-c2nc(Nc3ccc(S(N)(=O)=O)cc3)sc2CO)cc1` [SR-34774, N,N-diethyl-4-(5-(hydroxymethyl)-2-((4-sulfamoylphenyl)amino)thiazol-4-yl)benzenesulfonamide] to `CCN(CC)S(=O)(=O)c1ccc(-c2nc(Nc3ccc(S(C)(=O)=O)cc3)sc2CO)cc1` [SR-34970, N,N-diethyl-4-(5-(hydroxymethyl)-2-((4-(methylsulfonyl)phenyl)amino)thiazol-4-yl)benzenesulfonamide], the EC50 rises from 150 nM to greater than 500 nM.

First: CN(C)S(=O)(=O)c1ccc(-c2nc(Nc3ccc(S(N)(=O)=O)cc3)sc2CO)cc1 [SR-34775, 4-(5-(Hydroxymethyl)-2-((4-sulfamoylphenyl)amino)thiazol-4-yl)-N,N-dimethylbenzenesulfonamide]
Second: CN(C)S(=O)(=O)c1ccc(-c2nc(Nc3ccc(S(C)(=O)=O)cc3)sc2CO)cc1 [SR-34969, 4-(5-(Hydroxymethyl)-2-((4-(methylsulfonyl)phenyl)amino)thiazol-4-yl)-N,N-dimethylbenzenesulfonamide]
The EC50 of the first is 5.8-fold lower: 60 nM for the first, 350 nM for the second.

Compared with `CNS(=O)(=O)c1ccc(-c2nc(Nc3ccc(S(N)(=O)=O)cc3)sc2CO)cc1` [SR-34777, 4-(5-(Hydroxymethyl)-2-((4-sulfamoylphenyl)amino)thiazol-4-yl)-N-methylbenzenesulfonamide], `CNS(=O)(=O)c1ccc(-c2nc(Nc3ccc(S(C)(=O)=O)cc3)sc2CO)cc1` [SR-34968, 4-(5-(Hydroxymethyl)-2-((4-(methylsulfonyl)phenyl)amino)thiazol-4-yl)-N-methylbenzenesulfonamide] is higher in EC50: 70 nM for the first, greater than 500 nM for the second. The first is the more potent here.

First: CN(C)S(=O)(=O)c1ccc(-c2csc(Nc3ccc(S(C)(=O)=O)cc3)n2)cc1 [SR-34965, N,N-dimethyl-4-(2-((4-(methylsulfonyl)phenyl)amino)thiazol-4-yl)benzenesulfonamide]
Second: CC(C)NS(=O)(=O)c1ccc(-c2nc(Nc3ccc(S(C)(=O)=O)cc3)sc2CO)cc1 [SR-34971, 4-(5-(Hydroxymethyl)-2-((4-(methylsulfonyl)phenyl)amino)thiazol-4-yl)-N-isopropylbenzenesulfonamide]
The EC50 of the first is lower: 100 nM for the first, greater than 500 nM for the second. The first is the more potent here.

Going from `CS(=O)(=O)c1ccc(Nc2nc(-c3ccnc(Cl)c3)cs2)cc1F` [SR-34972, 4-(2-Chloropyridin-4-yl)-N-(3-fluoro-4-(methylsulfonyl)phenyl)thiazol-2-amine] to `Cc1cc(-c2csc(Nc3ccc(S(C)(=O)=O)c(F)c3)n2)ccn1` [SR-34973, N-(3-fluoro-4-(methylsulfonyl)phenyl)-4-(2-methylpyridin-4-yl)thiazol-2-amine], the EC50 falls from 125 nM to 70 nM (1.8-fold).

First: COc1cc(-c2csc(Nc3ccc(S(C)(=O)=O)c(F)c3)n2)ccn1 [SR-34975, N-(3-fluoro-4-(methylsulfonyl)phenyl)-4-(2-methoxypyridin-4-yl)thiazol-2-amine]
Second: COc1cc(-c2csc(Nc3ccc(S(C)(=O)=O)c(C(F)(F)F)c3)n2)ccn1 [SR-34985, 4-(2-Methoxypyridin-4-yl)-N-(4-(methylsulfonyl)-3-(trifluoromethyl)phenyl)thiazol-2-amine]
The EC50 of the first is 2-fold lower: 170 nM for the first, 335 nM for the second. The first is the more potent here.

First: COc1cc(-c2csc(Nc3ccc(S(C)(=O)=O)c(F)c3)n2)cc(OC)n1 [SR-34976, 4-(2,6-Dimethoxypyridin-4-yl)-N-(3-fluoro-4-(methylsulfonyl)phenyl)thiazol-2-amine]
Second: COc1cc(-c2nc(Nc3ccc(S(C)(=O)=O)c(F)c3)sc2CO)cc(OC)n1 [SR-34981, (4-(2,6-Dimethoxypyridin-4-yl)-2-((3-fluoro-4-(methylsulfonyl)phenyl)amino)thiazol-5-yl)methanol]
The EC50 of the first is lower: 320 nM for the first, greater than 500 nM for the second. The first is the more potent here.

`CS(=O)(=O)c1ccc(Nc2nc(-c3ccnc(Cl)c3)c(CO)s2)cc1F` [SR-34977, (4-(2-Chloropyridin-4-yl)-2-((3-fluoro-4-(methylsulfonyl)phenyl)amino)thiazol-5-yl)methanol] and `Cc1cc(-c2nc(Nc3ccc(S(C)(=O)=O)c(F)c3)sc2CO)ccn1` [SR-34978, (2-((3-Fluoro-4-(methylsulfonyl)phenyl)amino)-4-(2-methylpyridin-4-yl)thiazol-5-yl)methanol] are within 1.5-fold of each other in EC50: 360 nM for the first, 320 nM for the second.

`Cc1cc(-c2nc(Nc3ccc(S(C)(=O)=O)c(F)c3)sc2CO)cc(C)n1` [SR-34979, (4-(2,6-Dimethylpyridin-4-yl)-2-((3-fluoro-4-(methylsulfonyl)phenyl)amino)thiazol-5-yl)methanol] and `COc1cc(-c2nc(Nc3ccc(S(C)(=O)=O)c(F)c3)sc2CO)ccn1` [SR-34980, (2-((3-Fluoro-4-(methylsulfonyl)phenyl)amino)-4-(2-methoxypyridin-4-yl)thiazol-5-yl)methanol] are within 1.5-fold of each other in EC50: 360 nM for the first, 320 nM for the second.

Work on `Cc1cc(-c2csc(Nc3ccc(S(C)(=O)=O)c(C(F)(F)F)c3)n2)ccn1` [SR-34983, 4-(2-Methylpyridin-4-yl)-N-(4-(methylsulfonyl)-3-(trifluoromethyl)phenyl)thiazol-2-amine] yielded an EC50 of 40 nM.
